{"source": "patent US7858657B2", "about": "(Proix Pharmaceutical Corp., priority 2004, dated 2010)", "key": {"[1]": {"experiment": "Glucose tolerance studies", "conditions": "mean ± SE of 4 mice"}, "OvCaR-3 ovarian [2]": {"tested_on": "OvCaR-3 ovarian", "experiment": "Antitumor activity of wortmannin analogs, OvCaR-3 ovarian tumor (Table 1)", "assay_type": "in vivo", "conditions": "initial tumor vol 120 mm^3; for T/C % (optimal test/control): day 40"}, "HT-29 colon [3]": {"tested_on": "HT-29 colon", "experiment": "Antitumor activity of wortmannin analogs, HT-29 colon tumor (Table 1)", "assay_type": "in vivo", "conditions": "for T/C % (optimal test/control): day 16"}, "A-549 lung": {"tested_on": "A-549 lung", "experiment": "Antitumor activity of cytotoxic drugs alone or combined with PX-866, A-549 lung (Table 2)", "assay_type": "in vivo", "conditions": "size 300 mm^3; cisplatin ip 1 mg/kg QD × 5"}, "HT-29 colon [4]": {"tested_on": "HT-29 colon", "experiment": "Antitumor activity of cytotoxic drugs alone or combined with PX-866, HT-29 colon (Table 2)", "assay_type": "in vivo", "conditions": "size 150 mm^3; cisplatin ip 2.5 mg/kg Q2D × 3"}, "[5]": {"tested_on": "A-549 human nsc lung cancer xenografts", "experiment": "Antitumor studies, PX-866 and gefitinib in A-549 xenografts", "assay_type": "in vivo, scid mice", "procedure": "Antitumor Studies. […] When the tumors reached 100 or 600 mm3 the mice were stratified into groups of 8 animals having approximately equal mean tumor volumes and drug administration was started. […] Animals were weighed weekly and tumor diameters were measured twice weekly at right angles (d short and d long) with electronic calipers and tumor volumes calculated by the formula volume=(dshort)2×(dlong))2. When the tumor reached 2,000 mm3 or more, or became necrotic the animals were euthanized.\nIn vivo antitumor studies. […] Tumors were allowed to grow to a mean volume of […] before drug treatment was started every other day for 14 doses. Antitumor activity is expressed as the % volume of the treated tumor/control tumor (T/C %) at the end of the dosing period. There were 8 mice in each group and all differences are p<0.01."}, "[6]": {"tested_on": "tumor phospho-Akt (A-549 tumor xenografts)", "experiment": "Pharmacodynamic studies, tumor phospho-Akt in A-549 xenografts", "assay_type": "in vivo, scid mice", "conditions": "gefitinib 75 mg/kg po every other day for 5 days", "from_the_text": "Pharmacodynamic Studies. […] Tumor Akt activity was expressed as the ratio of phospho-Ser473-Akt to total Akt."}, "Panc-1 pancreatic": {"tested_on": "Panc-1 pancreatic", "experiment": "Antitumor activity of cytotoxic drugs alone or combined with PX-866, Panc-1 pancreatic (Table 2)", "assay_type": "in vivo", "conditions": "size 75 mm^3; gemcitabine ip 150 mg/kg Q3D × 3"}, "OvCaR-3 ovarian [7]": {"tested_on": "OvCaR-3 ovarian", "experiment": "Antitumor activity of cytotoxic drugs alone or combined with PX-866, OvCar-3 ovarian (Table 2)", "assay_type": "in vivo", "conditions": "size 110 mm^3; taxol ip 12 mg/kg Q2D × 5"}, "p110α/p85α": {"target": "T1, p110α/p85α (Bos taurus, UniProt P32871)", "T1 construct": "purchased Upstate (Charlottesville, Va.)", "T1 sequence (P32871 whole entry)": "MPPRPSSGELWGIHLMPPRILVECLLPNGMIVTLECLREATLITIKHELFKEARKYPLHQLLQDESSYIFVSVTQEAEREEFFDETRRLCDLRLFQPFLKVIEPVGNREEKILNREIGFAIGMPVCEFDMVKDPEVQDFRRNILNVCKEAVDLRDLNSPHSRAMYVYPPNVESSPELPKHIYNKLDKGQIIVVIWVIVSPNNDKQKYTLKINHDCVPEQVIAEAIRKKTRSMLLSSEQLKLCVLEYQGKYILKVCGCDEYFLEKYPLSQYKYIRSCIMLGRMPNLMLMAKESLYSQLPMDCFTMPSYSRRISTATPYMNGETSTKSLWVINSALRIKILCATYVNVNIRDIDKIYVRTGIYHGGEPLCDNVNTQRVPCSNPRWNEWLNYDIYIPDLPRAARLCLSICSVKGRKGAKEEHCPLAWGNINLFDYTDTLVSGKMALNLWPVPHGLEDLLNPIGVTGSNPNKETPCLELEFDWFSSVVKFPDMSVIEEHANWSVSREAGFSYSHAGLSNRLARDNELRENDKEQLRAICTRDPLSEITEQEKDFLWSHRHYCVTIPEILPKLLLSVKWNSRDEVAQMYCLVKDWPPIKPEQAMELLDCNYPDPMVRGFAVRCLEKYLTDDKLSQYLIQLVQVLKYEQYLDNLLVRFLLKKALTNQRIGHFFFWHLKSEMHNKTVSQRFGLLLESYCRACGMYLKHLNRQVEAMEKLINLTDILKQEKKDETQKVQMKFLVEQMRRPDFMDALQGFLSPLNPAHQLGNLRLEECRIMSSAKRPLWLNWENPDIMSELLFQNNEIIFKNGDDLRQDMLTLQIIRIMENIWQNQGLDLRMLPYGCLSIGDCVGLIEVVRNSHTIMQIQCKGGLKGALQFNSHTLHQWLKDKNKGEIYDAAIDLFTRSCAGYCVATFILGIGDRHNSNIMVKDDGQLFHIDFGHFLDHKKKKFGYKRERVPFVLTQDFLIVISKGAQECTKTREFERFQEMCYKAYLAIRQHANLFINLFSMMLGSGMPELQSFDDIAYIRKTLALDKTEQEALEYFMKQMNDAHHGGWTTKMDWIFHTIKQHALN", "T1 sequence (P23727 2-724 partner)": "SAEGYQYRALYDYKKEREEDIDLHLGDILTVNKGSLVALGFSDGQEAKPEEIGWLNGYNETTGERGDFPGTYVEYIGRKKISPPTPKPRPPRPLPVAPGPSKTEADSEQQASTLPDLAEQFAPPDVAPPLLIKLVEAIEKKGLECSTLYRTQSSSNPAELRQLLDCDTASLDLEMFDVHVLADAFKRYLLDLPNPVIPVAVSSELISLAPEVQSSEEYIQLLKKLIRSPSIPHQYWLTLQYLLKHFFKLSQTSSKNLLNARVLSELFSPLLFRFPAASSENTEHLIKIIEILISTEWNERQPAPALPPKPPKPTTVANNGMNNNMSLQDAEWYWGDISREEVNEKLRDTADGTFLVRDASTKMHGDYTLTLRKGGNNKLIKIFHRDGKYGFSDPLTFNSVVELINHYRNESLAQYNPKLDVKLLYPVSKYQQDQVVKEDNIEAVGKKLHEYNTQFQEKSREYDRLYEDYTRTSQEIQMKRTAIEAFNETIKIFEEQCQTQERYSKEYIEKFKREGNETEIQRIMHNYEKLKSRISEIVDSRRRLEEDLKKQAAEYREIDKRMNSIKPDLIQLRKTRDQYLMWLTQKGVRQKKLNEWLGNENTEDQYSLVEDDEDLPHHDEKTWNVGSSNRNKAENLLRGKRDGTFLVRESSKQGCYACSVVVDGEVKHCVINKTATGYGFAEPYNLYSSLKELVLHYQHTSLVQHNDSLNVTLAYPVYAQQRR", "experiment": "Inhibition of recombinant PtdIns-3-kinase, [32P]-ATP dependent phosphorylation of PtdIns", "assay_type": "biochemical, bovine", "from_the_text": "Materials and Methods. Compounds. […] Rabbit purified anti-phosphoSer473-Akt antibody, anti-Akt antibody, antiphospho Tyr1086-EGF-receptor antibody and anti-EGFR antibody were obtained from Cell Signaling Technology (Beverly, Mass.). Human recombinant p110α/p85α, p110β/p85α, p120 (and p110*/p85α PtdIns-3-kinases were obtained from Upstate (Charlottesville, Va.). Metformin hydrochloride was obtained from Spectrum Chemical (Gardena, Calif.), pioglitazone hydrochloride and recombinant human insulin from Sigma Chemical (St. Louis).\nMeasurement of PtdIns-3-kinase."}, "[8]": {"conditions": "initial tumor vol 170 mm^3, 13 mg/kg/day ip Q1D × 9"}, "[9]": {"conditions": "initial tumor vol 180 mm^3, 0.75 mg/kg/day ip Q1D × 9"}}, "note": "Several values for one entry are separate records, joined by “and”; a condition that tells them apart may be missing. Equal entries are not always repeated. Structures can show the parent of a compound that is named as a salt. Marks after values point to notes of the source that are not given here.", "data": [{"molecule": "CN(C)C(=N)N=C(N)N", "note": "[Metformin, Metformin hydrochloride, reference compound]", "values": [{"measurement": "plasma glucose AUC0-180 min", "setting": "[1]; Metformin 250 mg/kg IP QD × 5, without PX-866", "result": "367 ± 46", "unit": "mg·min/mL"}, {"measurement": "plasma glucose AUC0-180 min", "setting": "[1]; Metformin 250 mg/kg IP QD × 5 with PX-866 10 mg/kg po, hydrochloride", "result": "537 ± 4^b mg · min · ml^−1"}, {"measurement": "plasma glucose AUC0-180 min", "setting": "[1]; Metformin 250 mg/kg IP QD × 5 with PX-866 10 mg/kg po, listed as metformin, hydrochloride", "result": "had no effect"}]}, {"molecule": "COC[C@@H]1OC(=O)/C(=C/N2CCCC2)C2=C(O)C(=O)C3=C([C@H](OC(C)=O)C[C@]4(C)C(=O)CC[C@H]34)[C@]21C", "note": "[PX-867, Acetic acid 6-hydroxy-1α-methoxymethyl-10β,13β-dimethyl-3,7,17-trioxo-4-pyrrolidin-1-yl-methylene-1,3,4,7,10,11β,12,13,14α,15,16,17-dodecahydro-2-oxa-cyclopenta[α]phenanthren-11-yl]", "values": [{"measurement": "Growth Delay", "setting": "OvCaR-3 ovarian [2]; 13 mg/kg/day ip Q1D × 9", "result": 6, "unit": "days"}, {"measurement": "Log10 cell kill", "setting": "OvCaR-3 ovarian [2]; 13 mg/kg/day ip Q1D × 9", "result": 0.6}, {"measurement": "T/C % (optimal test/control)", "setting": "OvCaR-3 ovarian [2]; 13 mg/kg/day ip Q1D × 9", "result": "41 (40) %"}, {"measurement": "Growth Delay", "setting": "HT-29 colon [3]; [8]", "result": 0, "unit": "days"}, {"measurement": "Log10 cell kill", "setting": "HT-29 colon [3]; [8]", "result": 0}, {"measurement": "T/C % (optimal test/control)", "setting": "HT-29 colon [3]; [8]", "result": "80 (16) %"}]}, {"molecule": "CCc1ccc(CCOc2ccc(CC3SC(=O)NC3=O)cc2)nc1", "note": "(stereo not drawn) [Pioglitazone, pioglitazone hydrochloride, reference compound]", "values": [{"measurement": "plasma glucose AUC0-180 min", "setting": "[1]; Pioglitazone 10 mg/kg ip QD × 7, without PX-866", "result": "274 ± 3", "unit": "mg·min/mL"}, {"measurement": "plasma glucose AUC0-180 min", "setting": "[1]; Pioglitazone 10 mg/kg ip QD × 7 with PX-866 10 mg/kg po, hydrochloride", "result": "340 ± 39^c mg · min · ml^−1"}]}, {"molecule": "N.N.[Cl][Pt][Cl]", "note": "[cisplatin, reference compound]", "values": [{"measurement": "Alone Growth delay days", "setting": "A-549 lung", "result": 1, "unit": "days"}, {"measurement": "Alone TGI %", "setting": "A-549 lung", "result": 16, "unit": "%"}, {"measurement": "Alone log cell kill", "setting": "A-549 lung", "result": 0.1}, {"measurement": "Alone Growth delay days", "setting": "HT-29 colon [4]", "result": 0, "unit": "days"}, {"measurement": "Alone TGI %", "setting": "HT-29 colon [4]", "result": 11, "unit": "%"}, {"measurement": "Alone log cell kill", "setting": "HT-29 colon [4]", "result": 0}]}, {"molecule": "COc1cc2ncnc(Nc3ccc(F)c(Cl)c3)c2cc1OCCCN1CCOCC1", "note": "[gefitinib, reference compound]", "values": [{"measurement": "tumor T/Cs", "setting": "[5]; administered long term, single agent (discussion)", "result": "around 50%"}, {"measurement": "Tumor T/C %", "setting": "[5]; gefitinib po 75 mg/kg QOD × 14, 100 mm3 tumors, end of dosing period, 75 mg/kg", "result": "51% and 50.8%"}, {"measurement": "effect upon tumor phospho-Akt", "setting": "[6]", "result": "no significant effect"}]}, {"molecule": "Nc1ccn([C@@H]2O[C@H](CO)[C@@H](O)C2(F)F)c(=O)n1", "note": "[gemcitabine, reference compound]", "values": [{"measurement": "Alone Growth delay days", "setting": "Panc-1 pancreatic", "result": 7, "unit": "days"}, {"measurement": "Alone TGI %", "setting": "Panc-1 pancreatic", "result": 38, "unit": "%"}, {"measurement": "Alone log cell kill", "setting": "Panc-1 pancreatic", "result": 0.2}]}, {"molecule": "CC(=O)O[C@H]1C(=O)[C@@]2(C)[C@H]([C@H](OC(=O)c3ccccc3)[C@]3(O)C[C@H](OC(=O)[C@H](O)[C@@H](NC(=O)c4ccccc4)c4ccccc4)C(C)=C1C3(C)C)[C@]1(OC(C)=O)CO[C@@H]1C[C@@H]2O", "note": "[taxol, paclitaxel, reference compound]", "values": [{"measurement": "Alone Growth delay days", "setting": "OvCaR-3 ovarian [7]", "result": 13, "unit": "days"}, {"measurement": "Alone TGI %", "setting": "OvCaR-3 ovarian [7]", "result": 58, "unit": "%"}, {"measurement": "Alone log cell kill", "setting": "OvCaR-3 ovarian [7]", "result": 1.0}]}, {"molecule": "COC[C@H]1OC(=O)c2coc3c2[C@@]1(C)C1=C(C3=O)[C@@H]2CCC(=O)[C@@]2(C)C[C@H]1OC(C)=O", "note": "[wortmannin, reference compound]", "values": [{"measurement": "Growth Delay", "setting": "OvCaR-3 ovarian [2]; 0.75 mg/kg/day ip Q1D × 9", "result": 5, "unit": "days"}, {"measurement": "Log10 cell kill", "setting": "OvCaR-3 ovarian [2]; 0.75 mg/kg/day ip Q1D × 9", "result": 0.5}, {"measurement": "T/C % (optimal test/control)", "setting": "OvCaR-3 ovarian [2]; 0.75 mg/kg/day ip Q1D × 9", "result": "47 (40) %"}, {"measurement": "Growth Delay", "setting": "HT-29 colon [3]; [9]", "result": 5, "unit": "days"}, {"measurement": "Log10 cell kill", "setting": "HT-29 colon [3]; [9]", "result": 0.3}, {"measurement": "T/C % (optimal test/control)", "setting": "HT-29 colon [3]; [9]", "result": "36 (16) %"}, {"measurement": "IC50", "setting": "p110α/p85α", "result": 4, "unit": "nM"}]}, {"molecule": "Insulin: recombinant human insulin from Sigma Chemical", "values": [{"measurement": "plasma glucose AUC0-180 min", "setting": "[1]; Insulin 0.075 μ/kg ip with PX-866 10 mg/kg po", "result": "64 ± 5^ mg · min · ml^−1"}, {"measurement": "plasma glucose AUC0-180 min", "setting": "[1]; Insulin 0.075 μ/kg ip with PX-866 10 mg/kg po, listed as insulin", "result": "overcame the increase in plasma glucose caused by PX-866"}, {"measurement": "plasma glucose AUC0-180 min", "setting": "[1]; Insulin 0.075 μ/kg ip, without PX-866", "result": "64 ± 25", "unit": "mg·min/mL"}]}]}
